In PubChem BioAssay AID1259411 (Chemical Carcinogenesis Research Information System (CCRIS), 2018):
Activity calls are given as the source filed them. The rule behind the calls is not given here.

Test system: rodent carcinogenicity bioassays, tumor incidence
Assay: CCRIS carcinogenicity studies
In short: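 Archive of carcinogenicity, mutagenicity, tumor promotion and tumor inhibition results drawn from journals, NCI reports and other sources, expert-reviewed; covers 1985-2011 and is no longer updated.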

**Q.** Which results are given for `CC(=O)Nc1ccc(O)cc1`?
**A.** carcinogen call (Species: MOUSE, Strain/Sex: B6C3F1/FEMALE, Route: ORAL, Dose: 0, 600, 3000, 6000 PPM IN DIET FOR 103 WK (STUDY DURATION: 106 WK), Dose: 0, 600, 3000, 6000 PPM IN DIET FOR 103 WK (STUDY DURATION: 106 WK)): inactive; negative; carcinogen call (Species: MOUSE, Strain/Sex: B6C3F1/MALE, Route: ORAL, Dose: 0, 600, 3000, 6000 PPM IN DIET FOR 103 WK (STUDY DURATION: 106 WK), Dose: 0, 600, 3000, 6000 PPM IN DIET FOR 103 WK (STUDY DURATION: 106 WK)): inactive; negative; carcinogen call (Species: MOUSE, Strain/Sex: B6C3F1/MALE, Route: ORAL, Dose: 0, 5000, 10000 PPM IN DIET BEGINNING AT 6 WK OF AGE AND CONTINUING FOR 70 WK (STUDY DURATION: 72 WK), Dose: 0, 5000, 10000 PPM IN DIET BEGINNING AT 6 WK OF AGE AND CONTINUING FOR 70 WK (STUDY DURATION: 72 WK)): inactive; negative; carcinogen call (Species: MOUSE, Strain/Sex: STRAIN-IF/FEMALE, Route: ORAL, Dose: 0, 0.5, 1% IN DIET FOR 18 MO (STUDY DURATION: 18 MO), Dose: 0, 0.5, 1% IN DIET FOR 18 MO (STUDY DURATION: 18 MO), Tumor Site: Type of Lesion: LIVER: HEPATOCELLULAR CARCINOMA OR ADENOMA): active; positive; carcinogen call (Species: MOUSE, Strain/Sex: STRAIN-IF/MALE,FEMALE, Route: ORAL, Dose: 0.5, 1.0% IN DIET FOR 18 MO, Tumor Site: Type of Lesion: LIVER: HEPATOCELLULAR ADENOMA, CARCINOMA): active; positive; carcinogen call (Species: MOUSE, Strain/Sex: STRAIN-IF/MALE, Route: ORAL, Dose: 0, 0.5, 1% IN DIET FOR 18 MO (STUDY DURATION: 18 MO), Dose: 0, 0.5, 1% IN DIET FOR 18 MO (STUDY DURATION: 18 MO), Tumor Site: Type of Lesion: LIVER: HEPATOCELLULAR CARCINOMA, HEPATOCELLULAR ADENOMA OR CARCINOMA): active; positive; carcinogen call (Species: RAT, Strain/Sex: F344/FEMALE, Route: ORAL, Dose: 0, 0.65, 1.3% IN DIET FOR 104 WK (STUDY DURATION: 130 WK), Dose: 0, 0.65, 1.3% IN DIET FOR 104 WK (STUDY DURATION: 130 WK)): inactive; negative; carcinogen call (Species: RAT, Strain/Sex: F344/FEMALE, Route: ORAL, Dose: 0, 600, 3000, 6000 PPM IN DIET FOR 103 WK (STUDY DURATION: 106 WK), Dose: 0, 600, 3000, 6000 PPM IN DIET FOR 103 WK (STUDY DURATION: 106 WK), Tumor Site: Type of Lesion: MULTIPLE ORGANS: MONONUCLEAR CELL LEUKEMIA): equivocal; carcinogen call (Species: RAT, Strain/Sex: F344/MALE, Route: ORAL, Dose: 0, 0.45, 0.9% IN DIET FOR 104 WK (STUDY DURATION: 130 WK), Dose: 0, 0.45, 0.9% IN DIET FOR 104 WK (STUDY DURATION: 130 WK)): inactive; negative; carcinogen call (Species: RAT, Strain/Sex: F344/MALE, Route: ORAL, Dose: 0, 600, 3000, 6000 PPM IN DIET FOR 103 WK (STUDY DURATION: 106 WK), Dose: 0, 600, 3000, 6000 PPM IN DIET FOR 103 WK (STUDY DURATION: 106 WK)): inactive; negative

**Q.** With `C=CC(=O)OCCCCCC(C)C` as the compound, how does the carcinogen call (Species: MOUSE, Strain/Sex: C3H/MALE, Route: DERMAL, Dose: 25 µL (5% V/V) IN ACETONE APPLIED TO BACK 3 D/WK FOR LIFE (STUDY DURATION: LIFE)) read?
**A.** Its carcinogen call is “inactive; negative”.

**Q.** What does the source list for `CCCCOC(=O)[C@@H](C)Oc1ccc(Oc2ccc(C#N)cc2F)cc1`?
**A.** carcinogen call (Species: Mouse, Strain/Sex: ICR (Crj:CD-1)/(Male (52/group), Route: Oral, Dose: 0, 3, 10, 100 ppm (0; 0.31; 0.99; 10.1 mg/kg/day) of 97.1% pure cyhalofop-butyl in diet for 78 wk, Dose: 0, 3, 10, 100 ppm (0; 0.31; 0.99; 10.1 mg/kg/day) of 97.1% pure cyhalofop-butyl in diet for 78 wk): inactive; negative; carcinogen call (Species: Mouse, Strain/Sex: ICR (Crj:CD-1)/Female (52/group), Route: Oral, Dose: 0, 3, 10, 100 ppm (0; 0.29; 0.99; 10.3 mg/kg/day) of 97.1% pure cyhalofop-butyl in diet for 78 wk, Dose: 0, 3, 10, 100 ppm (0; 0.29; 0.99; 10.3 mg/kg/day) of 97.1% pure cyhalofop-butyl in diet for 78 wk): inactive; negative

**Q.** `Cc1cnc2ccc3c(nc(NO)n3C)c2n1` was tested. Which carcinogen call (Species: RAT, Strain/Sex: ACI/SEG/MALE, Route: INTRAPERITONEAL, Dose: 0, 50 UMOL/KG BW 2X/WK FOR 10 WK BEGINNING AT 3 D OF AGE (STUDY DURATION: 68 WK), Tumor Site: Type of Lesion: SOFT TISSUE: TUMOR) did it give?
**A.** The carcinogen call was “active; positive”.

**Q.** How did the carcinogen call (Species: RAT, Strain/Sex: BD-IX/MALE, FEMALE, Route: GAVAGE, Dose: 0, 6, 60 MG/KG 2/WK AFTER 2 WK HIGH DOSE REDUCED TO 30 MG/KG FOR DURATION OF STUDY (STUDY DURATION: LIFETIME), Dose: 0, 6, 60 MG/KG 2/WK AFTER 2 WK HIGH DOSE REDUCED TO 30 MG/KG FOR DURATION OF STUDY (STUDY DURATION: LIFETIME), Tumor Site: Type of Lesion: FORESTOMACH: TUMOR) turn out when `CN(N=O)C(=O)c1c(N(C)N=O)ncn1C` was run?
**A.** Its carcinogen call is “active; positive”.

**Q.** With `Cc1cc(N=Nc2ccccc2C)ccc1N` as the compound, how does the carcinogen call (Species: DOG, Route: ORAL, Tumor Site: Type of Lesion: LIVER, GALL BLADDER, URINARY BLADDER, Tumor Site: Type of Lesion: LIVER, GALL BLADDER, URINARY BLADDER) read?
**A.** Its carcinogen call is “active; positive”.

**Q.** What about the carcinogen call (Species: HAMSTER, Route: ORAL, Tumor Site: Type of Lesion: LIVER, URINARY BLADDER) of the same compound?
**A.** Its carcinogen call is “active; positive”.

**Q.** What about the carcinogen call (Species: MOUSE, Route: INTRAPERITONEAL, ORAL, SUBCUTANEOUS, DERMAL, Tumor Site: Type of Lesion: LIVER) of the same compound?
**A.** The carcinogen call was “active; positive”.

**Q.** What about the carcinogen call (Species: MOUSE, Route: ORAL, SUBCUTANEOUS, Tumor Site: Type of Lesion: LUNG) of the same compound?
**A.** The carcinogen call was “active; positive”.

**Q.** What about the carcinogen call (Species: RAT, Route: ORAL, SUBCUTANEOUS, Tumor Site: Type of Lesion: LIVER) of the same compound?
**A.** Its carcinogen call is “active; positive”.

**Q.** `Cc1cc(C)c(N)cc1C` was tested. Which carcinogen call (Species: MOUSE, Strain/Sex: B6C3F1/FEMALE, Route: ORAL, Dose: 0, 50, 100 PPM IN DIET FOR 101 WK (STUDY DURATION: 101 WK), Dose: 0, 50, 100 PPM IN DIET FOR 101 WK (STUDY DURATION: 101 WK), Tumor Site: Type of Lesion: LIVER: HEPATOCELLULAR CARCINOMA) did it give?
**A.** Its carcinogen call is “active; positive”.

**Q.** What about the carcinogen call (Species: MOUSE, Strain/Sex: B6C3F1/MALE, Route: ORAL, Dose: 0, 50, 100 PPM IN DIET FOR 101 WK (STUDY DURATION: 101 WK), Dose: 0, 50, 100 PPM IN DIET FOR 101 WK (STUDY DURATION: 101 WK), Tumor Site: Type of Lesion: LIVER: HEPATOCELLULAR CARCINOMA) of the same compound?
**A.** Its carcinogen call is “equivocal”.

**Q.** And the carcinogen call (Species: RAT, Strain/Sex: F344/FEMALE, Route: ORAL, Dose: 0, 200, 800 PPM IN DIET FOR 101 WK (STUDY DURATION: 101 WK), Dose: 0, 200, 800 PPM IN DIET FOR 101 WK (STUDY DURATION: 101 WK), Tumor Site: Type of Lesion: LUNG: ALVEOLAR/BRONCHIOLAR ADENOMA OR CARCINOMA, LIVER: HEPATOCELLULAR CARCINOMA OR NEOPLASTIC NODULE)?
**A.** Its carcinogen call is “active; positive”.

**Q.** And the carcinogen call (Species: RAT, Strain/Sex: F344/MALE, Route: ORAL, Dose: 0, 200, 800 PPM IN DIET FOR 101 WK (STUDY DURATION: 101 WK), Dose: 0, 200, 800 PPM IN DIET FOR 101 WK (STUDY DURATION: 101 WK), Tumor Site: Type of Lesion: LIVER: BILE DUCT CARCINOMA, HEPATOCELLULAR CARCINOMA OR NEOPLASTIC NODULE)?
**A.** Its carcinogen call is “active; positive”.
